The test relates to Purkinje cells in acute cerebellar slices from SCA2-58Q mouse. Kind of test: Cerebellar slice loose-patch recordings of spontaneous PC activity in SCA2-58Q mice. In kind it is cell-based. The settings on record: 10 μM; for effect on PC firing pattern: bursting SCA2-58Q PC; for Average firing frequency (FF) after exposure: 10-s fragment of one PC recording, before application 2o 157.2 Hz, 2q 134.3 Hz. How it is done:
The ISI distribution before and after 2o application, obtained from 10-s fragments of the recording was also analyzed (FIG. 9C). […] The ISI distribution before and after 2q application, obtained from 10-s fragments of the recording was also analyzed (FIG. 10A).
Transgenic SCA2-58Q mice and their wild type (WT) littermates were used in these experiments. SCA2-58Q mice were kindly provided to us by Dr. Stefan Pulst (University of Utah) and were crossed to the FVB background strain. Hemizygous male SCA2-58Q mice were crossed with the WT female mice to generate mixed litters. The genotyping was done via PCR for ATXN2 transgene. The volume of one PCR sample was 25 μl. The PCR mix per one sample contained: 2.5 μl 10× buffer for Taq polymerase, 0.5 μl 10 mM dNTP, 1.5 μl 25 mM MgCl2, 0.125 μl 20 μM primers (forward and reverse), 0.25 μl Taq polymerase, 2 μl DNA, and 18 μl dH2O. For forward and reverse primer sequences, see e.g., Egorova et al., Cell Calcium, 2021 January; 93: 102319. The PCR product has 232 bp. Mice were housed in groups of two to six in one cage in the vivarium. The temperature was kept 22-24° C. including 12 daylight hours. […] All procedures were approved by the Bioethics Committee of the Peter the Great St. Petersburg Polytechnic University at St. Petersburg, Russia, and followed the principles of the European convention (Strasbourg, 1986) and the Declaration of International medical association about humane treatment of animals (Helsinki, 1996).
Recordings of spontaneous PC activity from WT and SCA2-58Q mice at 7-8 months of age were performed. Briefly, the mice were anesthetized with 2,000 mg/kg urethane and transcardially perfused with ice-cold aCSF containing 85 mM NaCl, 24 mM NaHCO3, 25 mM glucose, 2.5 mM KCl, 0.5 mM CaCl2, 4 mM MgCl2, 1 mM NaH2PO4, and 75 mM sucrose. Solutions were equilibrated with carbogen (95% O2/5% CO2). Next, the cerebellum was dissected and 300 μm thick sagittal slices were cut with a VT1200S vibratome (Leica). […] The external bath solution used for the recording was the same as the recovery aCSF, but also contained 100 μM picrotoxin (PTX) and 10 μM 6,7-dinitroquinoxaline-2,3-dione (DNQX), equilibrated with carbogen. All recordings were made within 5-6 hours after cerebellum was dissected. The recording chamber was heated to 35° C. using TC-324C automatic temperature controller (Warner Instruments). Loose-patch recordings were made to evaluate the spontaneous activity of cerebellar PCs. Briefly, 1-3 MΩ glass pipettes were filled with the internal solution containing 140 mM NaCl buffered with 10 mM HEPES pH 7.3 and held at 0 mV. A loose patch (<100 MΩ) configuration was established at the PC soma at the axon hillock area. Spontaneous action potential currents were recorded for 5-60 min from each cell using Axon Multiclamp 700B amplifier (Molecular Devices). The 10 min recordings were analyzed for tonic or burst firing. Cells were characterized as firing tonically if they fired repetitive nonhalting spike trains for 10 min. A cell was characterized as bursting if it had more than 5% of the interspike intervals that fell outside of 3 SD from the mean of all interspike intervals in that cell. The analysis of PC firing was performed using Clampfit 10.2 (Molecular Devices). Data was plotted as the instantaneous firing rate every 100 ms for the entire recording duration.

“Also recorded” adds a separate entry of the source.

Regarding `Cc1cc(Nc2ccc(F)c(Cl)c2)nc(-n2nc(C)cc2C)n1` [Compound 2o, N-(3-Chloro-4-fluorophenyl)-2-(3,5-dimethyl-1H-pyrazol-1-yl)-6-methyl-pyrimidin-4-amine], the “effect on PC firing frequency” value is given as “significantly decreased the firing frequency of the cell”, the “effect on regularity of PC activity” value is “improved the regularity of PC activity”, the “effect on PC firing pattern” value is on record as “converted bursting SCA2-58Q PC to tonic firing pattern; also recorded: normalize abnormal firing of Purkinje cells; also recorded: converts bursting patterns into tonic activity of PC” and the “Average firing frequency (FF) after exposure” value stood at 84.6 Hz.

Take `Cc1cc(Nc2cc(Cl)ccc2F)nc(-n2nc(C)cc2C)n1` [Compound 2q, N-(5-Chloro-2-fluorophenyl)-2-(3,5-dimethyl-1H-pyrazol-1-yl)-6-methylpyrimidin-4-amine]: the “effect on PC firing frequency” value is “significantly decreased the firing frequency of the cell”; the “effect on regularity of PC activity” value is “improved the regularity of PC activity”; the “time after application until cell activity switched to the silent mode” value stood at 8 min; the “effect on PC firing pattern” value was “converted bursting SCA2-58Q PC to tonic firing pattern; also recorded: normalize abnormal firing of Purkinje cells; also recorded: converts bursting patterns into tonic activity of PC and then into a silent mode”. Also, the “Average firing frequency (FF) after exposure” value turned out to be 55.9 Hz.
